{
  "source": "PubChem BioAssay (NCI)",
  "test_in_all_cases": "NCI-60 cell line screen, 48 h",
  "key": {"K-562 leukemia": {"test_system": "K-562 leukemia"}, "UACC-257 melanoma": {"test_system": "UACC-257 melanoma"}, "HS 578T breast": {"test_system": "HS 578T breast"}, "SNB-75 CNS": {"test_system": "SNB-75 CNS"}, "EKVX NSCLC": {"test_system": "EKVX NSCLC"}, "HCT-116 colon": {"test_system": "HCT-116 colon"}, "COLO 205 colon": {"test_system": "COLO 205 colon"}, "MDA-MB-231 breast": {"test_system": "MDA-MB-231 breast"}, "TK-10 renal": {"test_system": "TK-10 renal"}, "OVCAR-3 ovarian": {"test_system": "OVCAR-3 ovarian"}, "DU-145 prostate": {"test_system": "DU-145 prostate"}, "MOLT-4 leukemia": {"test_system": "MOLT-4 leukemia"}, "LOX IMVI melanoma": {"test_system": "LOX IMVI melanoma"}, "M14 melanoma": {"test_system": "M14 melanoma"}, "NCI-H226 lung": {"test_system": "NCI-H226 lung"}, "OVCAR-5 ovarian": {"test_system": "OVCAR-5 ovarian"}, "BT-549 breast": {"test_system": "BT-549 breast"}, "SN12C renal": {"test_system": "SN12C renal"}, "UO-31 renal": {"test_system": "UO-31 renal"}, "HOP-92 NSCLC": {"test_system": "HOP-92 NSCLC"}, "A549 NSCLC": {"test_system": "A549 NSCLC"}, "SK-OV-3 ovarian": {"test_system": "SK-OV-3 ovarian"}, "MALME-3M melanoma": {"test_system": "MALME-3M melanoma"}, "HCC-2998 colon": {"test_system": "HCC-2998 colon"}, "NCI-H460 lung": {"test_system": "NCI-H460 lung"}, "CCRF-CEM leukemia": {"test_system": "CCRF-CEM leukemia"}, "OVCAR-8 ovarian": {"test_system": "OVCAR-8 ovarian"}, "SNB-19 CNS": {"test_system": "SNB-19 CNS"}, "ACHN renal": {"test_system": "ACHN renal"}},
  "note": "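All cell lines were grown in 96-well plates and treated with compound for 48 hours. GI50 marks 50% less growth. TGI denotes the concentration required for complete inhibition of growth.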",
  "data": [
    {"molecule": "Cc1ccc2c(n1)C(=O)C(Cl)=C(Nc1cccc(C(C)C)c1)C2=O", "values": [
      {"measurement": "TGI", "setting": "K-562 leukemia", "result": "> 100", "unit": "µM"},
      {"measurement": "GI50", "setting": "UACC-257 melanoma", "result": 1.59, "unit": "µM"},
      {"measurement": "TGI", "setting": "UACC-257 melanoma", "result": 3.07, "unit": "µM"},
      {"measurement": "GI50", "setting": "HS 578T breast", "result": 2.29, "unit": "µM"},
      {"measurement": "TGI", "setting": "HS 578T breast", "result": 6.16, "unit": "µM"},
      {"measurement": "GI50", "setting": "SNB-75 CNS", "result": 1.4, "unit": "µM"},
      {"measurement": "TGI", "setting": "SNB-75 CNS", "result": 3.19, "unit": "µM"},
      {"measurement": "GI50", "setting": "EKVX NSCLC", "result": 1.59, "unit": "µM"},
      {"measurement": "TGI", "setting": "EKVX NSCLC", "result": 3.24, "unit": "µM"},
      {"measurement": "GI50", "setting": "HCT-116 colon", "result": 1.52, "unit": "µM"},
      {"measurement": "TGI", "setting": "HCT-116 colon", "result": 3.55, "unit": "µM"},
      {"measurement": "GI50", "setting": "COLO 205 colon", "result": 3.33, "unit": "µM"},
      {"measurement": "TGI", "setting": "COLO 205 colon", "result": 12.1, "unit": "µM"},
      {"measurement": "GI50", "setting": "MDA-MB-231 breast", "result": 1.37, "unit": "µM"},
      {"measurement": "TGI", "setting": "MDA-MB-231 breast", "result": 3.01, "unit": "µM"},
      {"measurement": "GI50", "setting": "TK-10 renal", "result": 4.67, "unit": "µM"},
      {"measurement": "TGI", "setting": "TK-10 renal", "result": 13.8, "unit": "µM"},
      {"measurement": "GI50", "setting": "OVCAR-3 ovarian", "result": 0.617, "unit": "µM"},
      {"measurement": "TGI", "setting": "OVCAR-3 ovarian", "result": 2.91, "unit": "µM"},
      {"measurement": "GI50", "setting": "DU-145 prostate", "result": 1.86, "unit": "µM"},
      {"measurement": "TGI", "setting": "DU-145 prostate", "result": 3.82, "unit": "µM"},
      {"measurement": "GI50", "setting": "MOLT-4 leukemia", "result": 2.27, "unit": "µM"},
      {"measurement": "TGI", "setting": "MOLT-4 leukemia", "result": "> 100", "unit": "µM"},
      {"measurement": "GI50", "setting": "LOX IMVI melanoma", "result": 0.698, "unit": "µM"},
      {"measurement": "TGI", "setting": "LOX IMVI melanoma", "result": 2.54, "unit": "µM"},
      {"measurement": "GI50", "setting": "M14 melanoma", "result": 2.94, "unit": "µM"},
      {"measurement": "TGI", "setting": "M14 melanoma", "result": 10.1, "unit": "µM"},
      {"measurement": "GI50", "setting": "NCI-H226 lung", "result": 1.48, "unit": "µM"},
      {"measurement": "TGI", "setting": "NCI-H226 lung", "result": 3.59, "unit": "µM"},
      {"measurement": "GI50", "setting": "OVCAR-5 ovarian", "result": 2.17, "unit": "µM"},
      {"measurement": "TGI", "setting": "OVCAR-5 ovarian", "result": 4.55, "unit": "µM"},
      {"measurement": "GI50", "setting": "BT-549 breast", "result": 2.45, "unit": "µM"},
      {"measurement": "TGI", "setting": "BT-549 breast", "result": 10.8, "unit": "µM"},
      {"measurement": "GI50", "setting": "SN12C renal", "result": 1.76, "unit": "µM"},
      {"measurement": "TGI", "setting": "SN12C renal", "result": 4.54, "unit": "µM"},
      {"measurement": "GI50", "setting": "UO-31 renal", "result": 1.49, "unit": "µM"},
      {"measurement": "TGI", "setting": "UO-31 renal", "result": 2.83, "unit": "µM"},
      {"measurement": "GI50", "setting": "HOP-92 NSCLC", "result": 1.76, "unit": "µM"},
      {"measurement": "TGI", "setting": "HOP-92 NSCLC", "result": 3.58, "unit": "µM"},
      {"measurement": "GI50", "setting": "A549 NSCLC", "result": 3.66, "unit": "µM"},
      {"measurement": "TGI", "setting": "A549 NSCLC", "result": 14, "unit": "µM"},
      {"measurement": "GI50", "setting": "SK-OV-3 ovarian", "result": 13.2, "unit": "µM"},
      {"measurement": "TGI", "setting": "SK-OV-3 ovarian", "result": 26.7, "unit": "µM"},
      {"measurement": "GI50", "setting": "MALME-3M melanoma", "result": 1.65, "unit": "µM"},
      {"measurement": "TGI", "setting": "MALME-3M melanoma", "result": 3.18, "unit": "µM"},
      {"measurement": "GI50", "setting": "HCC-2998 colon", "result": 3.95, "unit": "µM"},
      {"measurement": "TGI", "setting": "HCC-2998 colon", "result": 13.7, "unit": "µM"},
      {"measurement": "GI50", "setting": "NCI-H460 lung", "result": 3.42, "unit": "µM"},
      {"measurement": "TGI", "setting": "NCI-H460 lung", "result": 13.5, "unit": "µM"},
      {"measurement": "GI50", "setting": "CCRF-CEM leukemia", "result": 2.36, "unit": "µM"},
      {"measurement": "TGI", "setting": "CCRF-CEM leukemia", "result": 19.9, "unit": "µM"},
      {"measurement": "GI50", "setting": "OVCAR-8 ovarian", "result": 2.53, "unit": "µM"},
      {"measurement": "TGI", "setting": "OVCAR-8 ovarian", "result": 8.97, "unit": "µM"},
      {"measurement": "GI50", "setting": "SNB-19 CNS", "result": 3.23, "unit": "µM"},
      {"measurement": "TGI", "setting": "SNB-19 CNS", "result": 13.6, "unit": "µM"},
      {"measurement": "GI50", "setting": "ACHN renal", "result": 1.69, "unit": "µM"},
      {"measurement": "TGI", "setting": "ACHN renal", "result": 3.12, "unit": "µM"}
    ]}
  ]
}
